Measured values reported in US20260184710A1, “CASITAS B-LINEAGE LYMPHOMA PROTOONCOGENE B (CBL-B) DEGRADING COMPOUNDS AND ASSOCIATED METHODS OF USE” (Arvinas Operations, Inc., priority 2022, published 2026).

Legend:
[1] = molecular target: T1, Cbl-b (Homo sapiens, UniProt Q13191); test: Cbl-b Degradation Method A (FACS, anti-Cbl-b antibody staining); type: cell-based; conditions: Cbl-b-HiBit KI Jurkat Cells, incubated at least 20 hours; for DC50: half maximal degradation, read-out: Cbl-b Degredation Method A IC50; for Dmax: Jurkat, maximum degradation observed, read-out: Cbl-b Degredation Method A Dmax (%)
T1 construct: Cbl-b-HiBit KI Jurkat Cells were purchased from Promega; host or cells: Cbl-b-HiBiT knock-in Jurkat cells
Summary of the method: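 Readout is flow cytometry of fixed, permeabilized cells immunostained for Cbl-b (primary 1:200, AF488 secondary). Cells were Cbl-b-HiBit knock-in Jurkat, exposed to compound ≥20 h at 37 °C; half-maximal degradation concentration (DC50) and maximal degradation (Dmax) calculated relative to control.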

[2] = molecular target: T1, Cbl-b; test: Cbl-b Degradation Method B (Nano-Glo HiBiT lytic detection); type: cell-based; conditions: Cbl-b-HiBit KI Jurkat Cells, incubated at least 6-24 hours; for DC50: half maximal degradation, read-out: Cbl-b Degredation Method B IC50; for Dmax: maximum degradation observed, read-out: Cbl-b Degredation Method B Dmax (%)
Summary of the method: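 An 11-point, 3-fold compound dilution was applied for 6-24 hours to Jurkat cells carrying HiBiT-tagged endogenous Cbl-b. Lytic HiBiT luminescence quantified residual protein. Outputs are DC50 and Dmax relative to DMSO control.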

T1 sequence (Q13191 whole entry): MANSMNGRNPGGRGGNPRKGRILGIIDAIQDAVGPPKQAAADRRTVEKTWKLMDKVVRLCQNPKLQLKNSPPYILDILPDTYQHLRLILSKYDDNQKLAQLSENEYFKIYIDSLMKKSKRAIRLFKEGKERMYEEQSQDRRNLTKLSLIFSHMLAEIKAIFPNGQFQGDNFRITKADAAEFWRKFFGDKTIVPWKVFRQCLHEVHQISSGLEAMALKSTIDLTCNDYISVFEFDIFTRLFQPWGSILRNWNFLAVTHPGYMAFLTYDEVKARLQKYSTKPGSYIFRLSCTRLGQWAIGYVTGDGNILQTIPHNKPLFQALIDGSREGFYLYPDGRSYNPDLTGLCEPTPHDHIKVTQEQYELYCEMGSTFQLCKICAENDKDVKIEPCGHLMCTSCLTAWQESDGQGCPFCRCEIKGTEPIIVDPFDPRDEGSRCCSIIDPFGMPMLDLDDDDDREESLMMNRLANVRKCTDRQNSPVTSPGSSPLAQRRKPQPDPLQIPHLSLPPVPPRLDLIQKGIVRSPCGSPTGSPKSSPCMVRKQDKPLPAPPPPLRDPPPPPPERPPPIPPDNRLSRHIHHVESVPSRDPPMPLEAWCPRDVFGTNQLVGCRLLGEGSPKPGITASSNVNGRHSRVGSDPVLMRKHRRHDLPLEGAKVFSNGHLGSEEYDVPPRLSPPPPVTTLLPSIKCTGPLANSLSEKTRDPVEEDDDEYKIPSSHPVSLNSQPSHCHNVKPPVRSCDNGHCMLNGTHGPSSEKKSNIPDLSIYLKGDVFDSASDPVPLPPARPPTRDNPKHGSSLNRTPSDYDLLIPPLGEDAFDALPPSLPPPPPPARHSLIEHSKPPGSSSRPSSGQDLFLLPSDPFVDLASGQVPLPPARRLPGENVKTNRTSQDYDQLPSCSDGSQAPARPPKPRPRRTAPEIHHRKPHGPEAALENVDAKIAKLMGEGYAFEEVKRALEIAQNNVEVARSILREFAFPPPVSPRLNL

SMILES | DC50 [1] [nM] | Dmax [1] [%] | DC50 [2] [nM] | Dmax [2] [%]
Cn1cnnc1CC1(c2cccc(N3Cc4c(cc(CN5CCC[C@H](CN6CCC(CN7CC8(C7)CN(c7ccc9c(c7)C(=O)N(C7CCC(=O)NC7=O)C9=O)C8)CC6)C5)cc4C(F)(F)F)C3=O)c2)COC1 (stereo partly drawn) [Example 114, 2-(2,6-dioxopiperidin-3-yl)-5-{6-[(1-{[(3R)-1-{[2-(3-{3-[(4-methyl-4H-1,2,4-triazol-3-yl)methyl]oxetan-3-yl}phenyl)-3-oxo-7-(trifluoromethyl)-2,3-dihydro-1H-isoindol-5-yl]methyl}piperidin-3-yl]methyl}piperidin-4-yl)methyl]-2,6-diazaspiro[3.3]heptan-2-yl}-2,3-dihydro-1H-isoindole-1,3-dione] | 5 to 50 | < 35 | 5 to 50 | < 35
Cn1cnnc1CC1(c2cccc(N3Cc4c(cc(N5CC6(CCN(CC7CCN(c8ccc9c(c8)C(=O)N(C8CCC(=O)NC8=O)C9=O)CC7)CC6)C5)cc4C(F)(F)F)C3=O)c2)COC1 (stereo not drawn) [Example 115, 2-(2,6-dioxopiperidin-3-yl)-5-[4-({2-[2-(3-{3-[(4-methyl-4H-1,2,4-triazol-3-yl)methyl]oxetan-3-yl}phenyl)-3-oxo-7-(trifluoromethyl)-2,3-dihydro-1H-isoindol-5-yl]-2,7-diazaspiro[3.5]nonan-7-yl}methyl)piperidin-1-yl]-2,3-dihydro-1H-isoindole-1,3-dione] | 5 to 50 | 35 to 70 | 5 to 50 | 35 to 70
Cn1cnnc1CC1(c2cccc(N3Cc4c(cc(N5CC6(CCN(c7cc8c(cc7F)C(=O)N(C7CCC(=O)NC7=O)C8=O)CC6)C5)cc4C(F)(F)F)C3=O)c2)COC1 (stereo not drawn) [Example 116, 2-(2,6-dioxopiperidin-3-yl)-5-fluoro-6-{2-[2-(3-{3-[(4-methyl-4H-1,2,4-triazol-3-yl)methyl]oxetan-3-yl}phenyl)-3-oxo-7-(trifluoromethyl)-2,3-dihydro-1H-isoindol-5-yl]-2,7-diazaspiro[3.5]nonan-7-yl}-2,3-dihydro-1H-isoindole-1,3-dione] | > 500 | – | > 500 | –
Cn1cnnc1CC1(c2cccc(N3Cc4c(cc(N5CC6(CCN(CC7CCN(c8ccc9c(c8)CN(C8CCC(=O)NC8=O)C9=O)CC7)CC6)C5)cc4C(F)(F)F)C3=O)c2)COC1 (stereo not drawn) [Example 117, 3-{5-[4-({2-[2-(3-{3-[(4-methyl-4H-1,2,4-triazol-3-yl)methyl]oxetan-3-yl}phenyl)-3-oxo-7-(trifluoromethyl)-2,3-dihydro-1H-isoindol-5-yl]-2,7-diazaspiro[3.5]nonan-7-yl}methyl)piperidin-1-yl]-1-oxo-2,3-dihydro-1H-isoindol-2-yl}piperidine-2,6-dione] | < 5 | 35 to 70 | < 5 | 35 to 70
Cn1cnnc1CC1(c2cccc(N3Cc4c(cc(N5CCC(CC6CCN(c7cc8c(cc7F)C(=O)N(C7CCC(=O)NC7=O)C8=O)CC6)CC5)cc4C(F)(F)F)C3=O)c2)COC1 (stereo not drawn) [Example 118, 2-(2,6-dioxopiperidin-3-yl)-5-fluoro-6-[4-({1-[2-(3-{3-[(4-methyl-4H-1,2,4-triazol-3-yl)methyl]oxetan-3-yl}phenyl)-3-oxo-7-(trifluoromethyl)-2,3-dihydro-1H-isoindol-5-yl]piperidin-4-yl}methyl)piperidin-1-yl]-2,3-dihydro-1H-isoindole-1,3-dione] | > 500 | – | > 500 | –
Cn1cnnc1CC1(c2cccc(N3Cc4c(cc(N5CC6(CCN(CC7CCN(c8cccc9c8CN(C8CCC(=O)NC8=O)C9=O)CC7)CC6)C5)cc4C(F)(F)F)C3=O)c2)COC1 (stereo not drawn) [Example 119, 3-{4-[4-({2-[2-(3-{3-[(4-methyl-4H-1,2,4-triazol-3-yl)methyl]oxetan-3-yl}phenyl)-3-oxo-7-(trifluoromethyl)-2,3-dihydro-1H-isoindol-5-yl]-2,7-diazaspiro[3.5]nonan-7-yl}methyl)piperidin-1-yl]-1-oxo-2,3-dihydro-1H-isoindol-2-yl}piperidine-2,6-dione] | 5 to 50 | < 35 | < 5 | < 35
Cn1cnnc1CC1(c2cccc(N3Cc4c(cc(N5CC(C6CN(c7ccc8c(c7)C(=O)N(C7CCC(=O)NC7=O)C8=O)C6)C5)cc4C(F)(F)F)C3=O)c2)COC1 (stereo not drawn) [Example 121, 2-(2,6-dioxopiperidin-3-yl)-5-{1′-[2-(3-{3-[(4-methyl-4H-1,2,4-triazol-3-yl)methyl]oxetan-3-yl}phenyl)-3-oxo-7-(trifluoromethyl)-2,3-dihydro-1H-isoindol-5-yl]-[3,3′-biazetidin]-1-yl}-2,3-dihydro-1H-isoindole-1,3-dione] | 5 to 50 | – | > 500 | –
Cn1cnnc1CC1(c2cccc(N3Cc4c(cc(N5CCN(CC6CCN(c7ccc8c(c7)C(=O)N(C7CCC(=O)NC7=O)C8=O)CC6)CC5)cc4C(F)(F)F)C3=O)c2)COC1 (stereo not drawn) [Example 122, 2-(2,6-dioxopiperidin-3-yl)-5-[4-({4-[2-(3-{3-[(4-methyl-4H-1,2,4-triazol-3-yl)methyl]oxetan-3-yl}phenyl)-3-oxo-7-(trifluoromethyl)-2,3-dihydro-1H-isoindol-5-yl]piperazin-1-yl}methyl)piperidin-1-yl]-2,3-dihydro-1H-isoindole-1,3-dione] | 50 to 500 | – | > 500 | –
Cn1cnnc1CC1(c2cccc(N3Cc4c(cc(N5CC6(CN(c7ccc8c(c7)C(=O)N(C7CCC(=O)NC7=O)C8=O)C6)C5)cc4C(F)(F)F)C3=O)c2)COC1 (stereo not drawn) [Example 123, 2-(2,6-dioxopiperidin-3-yl)-5-{6-[2-(3-{3-[(4-methyl-4H-1,2,4-triazol-3-yl)methyl]oxetan-3-yl}phenyl)-3-oxo-7-(trifluoromethyl)-2,3-dihydro-1H-isoindol-5-yl]-2,6-diazaspiro[3.3]heptan-2-yl}-2,3-dihydro-1H-isoindole-1,3-dione] | 50 to 500 | 35 to 70 | > 500 | –
Cn1cnnc1CC1(c2cccc(N3Cc4c(cc(N5CCC(C6CCN(c7ccc8c(c7)C(=O)N(C7CCC(=O)NC7=O)C8=O)CC6)CC5)cc4C(F)(F)F)C3=O)c2)COC1 (stereo not drawn) [Example 124, 2-(2,6-dioxopiperidin-3-yl)-5-{1′-[2-(3-{3-[(4-methyl-4H-1,2,4-triazol-3-yl)methyl]oxetan-3-yl}phenyl)-3-oxo-7-(trifluoromethyl)-2,3-dihydro-1H-isoindol-5-yl]-[4,4′-bipiperidin]-1-yl}-2,3-dihydro-1H-isoindole-1,3-dione] | > 500 | – | > 500 | –

Now from value to compound:

DC50 [1] [nM] | Dmax [1] [%] | DC50 [2] [nM] | Dmax [2] [%] | SMILES
> 500 | – | > 500 | – | Cn1cnnc1CC1(c2cccc(N3Cc4c(cc(N5CCC6(CCN(c7ccc8c(c7)C(=O)N(C7CCC(=O)NC7=O)C8=O)CC6)CC5)cc4C(F)(F)F)C3=O)c2)COC1 (stereo not drawn) [Example 125, 2-(2,6-dioxopiperidin-3-yl)-5-{9-[2-(3-{3-[(4-methyl-4H-1,2,4-triazol-3-yl)methyl]oxetan-3-yl}phenyl)-3-oxo-7-(trifluoromethyl)-2,3-dihydro-1H-isoindol-5-yl]-3,9-diazaspiro[5.5]undecan-3-yl}-2,3-dihydro-1H-isoindole-1,3-dione]
> 500 | – | > 500 | – | Cn1cnnc1CC1(c2cccc(N3Cc4c(cc(N5CC6(CCN(c7ccc8c(c7)C(=O)N(C7CCC(=O)NC7=O)C8=O)C6)C5)cc4C(F)(F)F)C3=O)c2)COC1 (stereo not drawn) [Example 126, 2-(2,6-dioxopiperidin-3-yl)-5-{2-[2-(3-{3-[(4-methyl-4H-1,2,4-triazol-3-yl)methyl]oxetan-3-yl}phenyl)-3-oxo-7-(trifluoromethyl)-2,3-dihydro-1H-isoindol-5-yl]-2,6-diazaspiro[3.4]octan-6-yl}-2,3-dihydro-1H-isoindole-1,3-dione]
> 500 | – | > 500 | – | Cn1cnnc1CC1(c2cccc(N3Cc4c(cc(N5CCC6(C5)CN(c5ccc7c(c5)C(=O)N(C5CCC(=O)NC5=O)C7=O)C6)cc4C(F)(F)F)C3=O)c2)COC1 (stereo not drawn) [Example 127, 2-(2,6-dioxopiperidin-3-yl)-5-{6-[2-(3-{3-[(4-methyl-4H-1,2,4-triazol-3-yl)methyl]oxetan-3-yl}phenyl)-3-oxo-7-(trifluoromethyl)-2,3-dihydro-1H-isoindol-5-yl]-2,6-diazaspiro[3.4]octan-2-yl}-2,3-dihydro-1H-isoindole-1,3-dione]
> 500 | – | > 500 | – | Cn1cnnc1CC1(c2cccc(N3Cc4c(cc(N5CCC(C6CN(c7ccc8c(c7)C(=O)N(C7CCC(=O)NC7=O)C8=O)C6)CC5)cc4C(F)(F)F)C3=O)c2)COC1 (stereo not drawn) [Example 128, 2-(2,6-dioxopiperidin-3-yl)-5-(3-{1-[2-(3-{3-[(4-methyl-4H-1,2,4-triazol-3-yl)methyl]oxetan-3-yl}phenyl)-3-oxo-7-(trifluoromethyl)-2,3-dihydro-1H-isoindol-5-yl]piperidin-4-yl}azetidin-1-yl)-2,3-dihydro-1H-isoindole-1,3-dione]
50 to 500 | – | > 500 | – | Cn1cnnc1CC1(c2cccc(N3Cc4c(cc(N5CC(C6CCN(c7ccc8c(c7)C(=O)N(C7CCC(=O)NC7=O)C8=O)CC6)C5)cc4C(F)(F)F)C3=O)c2)COC1 (stereo not drawn) [Example 129, 2-(2,6-dioxopiperidin-3-yl)-5-(4-{1-[2-(3-{3-[(4-methyl-4H-1,2,4-triazol-3-yl)methyl]oxetan-3-yl}phenyl)-3-oxo-7-(trifluoromethyl)-2,3-dihydro-1H-isoindol-5-yl]azetidin-3-yl}piperidin-1-yl)-2,3-dihydro-1H-isoindole-1,3-dione]
